# Measured values reported in patent EP1285920A1, “C10 Ester sustituted taxanes as antitumor agents” (Florida State University Research Foundation, Inc., priority 2001, dated 2003).
# Like-named read-outs stand apart in the source and are kept apart here.
# Experiments:
# HCT116 carcinoma = details: for Toxic Deaths: mg/kg: Taxol 36 (split doses), 0503 72.6, 0536 49, 0663 159, 0670 123, 0687 159, 0706 108, 0908 159, 0947 76.9, 0951 72.6, 0983 72.6, 0999 49, 1003 49, 1011 108
# Description: Antitumor compounds were formulated for an i.v. dosing regime and were prepared in the following vehicle: 5% ethanol, 5% Cremophor and 90% isotonic saline.
# (§1) The antitumor compounds were given intravenously in a single maximum tolerated dose (MTD) appropriate for each compound. […] The MTDs for the antitumor compounds were calculated from earlier single dose data for mice receiving i.v. administration of these compounds. All vehicle control animals in the split dosing regimes were dosed twice intravenously with half of the total volume being given separated by one hour. The study was terminated on Day 60.
# A complete response is obtained if the tumor is not palpable at the end of the study.
# HCT116 = test: In Vitro cytotoxicity measured by the cell colony formation assay; type: cell-based, human; details: Homo sapiens, HCT-116; read-out: IN VITRO ID 50 HCT116
# How it was run: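 Four hundred cells per dish in McCoy's 5a medium with 10% FBS were allowed to attach for 5 h at 37 °C. They were then exposed to compound for 72 h at 37 °C, added as a 10× stock made fresh in medium. After HBSS rinsing and refeeding, colonies were counted after 7 days.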
# MX-1 carcinoma = details: for Toxic Deaths: mg/kg: Taxol 36 (split dose), 0503 72.6, 0536 49, 0663 159, 0670 123, 0687 159, 0706 108, 0908 159, 0947 76.9, 0951 72.6, 0983 67.4, 0999 49, 1003 49, 1011 108; for treated animals with durable complete responses and partial responses: single i.v. MTD
# Description: Thirteen antitumor compounds were formulated for an i.v. dosing regime (single i.v. bolus, qd x 1 schedule) prepared in the following vehicle: 5% ethanol, 5% Cremophor and 90% isotonic saline.
# as §1, with “half” for “half of”
# A complete response is obtained if the tumor is not palpable at the end of the study. […]
# VM46 colon carcinoma = tested on: VM46 colon carcinoma
# Description: Dosing was initiated on Day 1. […] Taxotere was given i.v. at a dose of 70 mg/kg on a qd x 1 schedule.
# A2780 ovarian carcinoma = details: for MDS: i.v. qd x 1 (compounds estimated MTD; Taxol 24 mg/kg split; Taxotere 70 mg/kg), days until tumor 2.0 g, ended Day 60; for MDS (n): mean days of survival until neoplasm reached 2.0 g, terminated Day 60
# Description: Dosing was initiated on Day 1. […] Taxotere was given i.v. on a qd x 1 schedule at a dose of 70 mg/kg. […] The study was terminated on Day 60. Treatment groups are detailed in Table 7.
# [1] = number of 5 mice, i.v. qd x 1 at MTD, Day 60, doses as in E3
# [2] = number of 5 mice, i.v. qd x 1 at MTD, Day 60
# [3] = number of 6 mice, i.v. qd x 1 at MTD, Day 60, doses as in E17
# [4] = number of 6 mice, i.v. qd x 1 at MTD, Day 60
# [5] = number of mice, i.v. qd x 1, mg/kg: Taxol 24, 0499 77, 0503 72.6, 0670 123.1, 0706 107.6, 0838 72.6, 0854 46.6, 0983 67.4, Taxotere 70, 6 mice/group, Day 64
# [6] = number of mice, i.v. qd x 1 at estimated MTD (Taxol 24 mg/kg, Taxotere 70 mg/kg, 0983 72.6 mg/kg), 5 mice/group (Taxotere 6)
# [7] = number of mice, i.v. qd x 1 at estimated MTD (Taxol 24 mg/kg, Taxotere 70 mg/kg, 0983 72.6 mg/kg), 5 mice/group (Taxotere 6), Day 60
# [8] = i.v. qd x 1 at MTD, 5 mice/group, Day 60, doses as in E3
# [9] = number of 5 mice, tumor did not reach 2.0 g by end of study, i.v. qd x 1 at MTD, Day 60, doses as in E3
# [10] = number of 5 mice, tumor not palpable at end of study, i.v. qd x 1 at MTD, Day 60, doses as in E3
# [11] = number of 5 mice, tumor smaller than on Day 1, i.v. qd x 1 at MTD, Day 60, doses as in E3
# [12] = i.v. qd x 1 at MTD, 6 mice/group, Day 60, doses as in E17
# [13] = number of 6 mice, tumor did not reach 2.0 g by end of study, i.v. qd x 1 at MTD, Day 60, doses as in E17
# [14] = number of 6 mice, tumor not palpable at end of study, i.v. qd x 1 at MTD, Day 60, doses as in E17
# [15] = number of 6 mice, tumor smaller than on Day 1, i.v. qd x 1 at MTD, Day 60, doses as in E17
# [16] = i.v. qd x 1 at estimated MTD (Taxol 24 mg/kg, Taxotere 70 mg/kg, 0983 72.6 mg/kg), 5 mice/group (Taxotere 6)
# [17] = tumor scoring system, i.v. qd x 1 at estimated MTD (Taxol 24 mg/kg, Taxotere 70 mg/kg, 0983 72.6 mg/kg), 5 mice/group (Taxotere 6)
# [18] = A2780, i.v. qd x 1, five mice per group
structure (smiles),measurement,setting,value
CCCC(=O)O[C@H]1C(=O)[C@@]2(C)[C@H]([C@H](OC(=O)c3ccccc3)[C@]3(O)C[C@H](OC(=O)[C@H](O)[C@@H](NC(=O)OC(C)(C)C)c4ccco4)C(C)=C1C3(C)C)[C@]1(OC(C)=O)CO[C@@H]1C[C@@H]2O [Compound 0983],group mean weight losses,"HCT116 carcinoma; HCT116, single i.v. MTD, Days 6-10",over 20%
same,Partial Response,HCT116 carcinoma; iv,1
same,Complete Response,"HCT116 carcinoma; iv, 1440 h",2
same,Mean Score,"HCT116 carcinoma; iv, 1440 h",5.8 ± 2.4
same,Stable Disease,"HCT116 carcinoma; iv, 1440 h",0
same,Survivors,HCT116 carcinoma; [1],3
same,Toxic Deaths,HCT116 carcinoma; [2],2
same,IC50,HCT116,< 1 nM
same,Partial Response,MX-1 carcinoma; iv,0
same,Complete Response,"MX-1 carcinoma; iv, 1440 h",6
same,Mean Score,"MX-1 carcinoma; iv, 1440 h",10 ± 0
same,Stable Disease,"MX-1 carcinoma; iv, 1440 h",0
same,Survivors,MX-1 carcinoma; [3],6
same,Toxic Deaths,MX-1 carcinoma; [4],0
same,response rate,"VM46 colon carcinoma; VM46, i.v. qd x 1 at estimated MTD",0%
same,Mean Score,VM46 colon carcinoma; iv,1.7 ± 0.8
same,MDS (n),"VM46 colon carcinoma; iv, 1536 h",56.0 ± 6.8 (2) days
same,Toxic Deaths,"VM46 colon carcinoma; number of mice, i.v. qd x 1, mg/kg: Taxol 24, 0499 77, 0503 72.6, 0670 123.1, 0706 107.6, 0838 72.6, 0854 46.6, 0983 67.4, Taxotere 70, 6 mice/group",3
same,Complete Response,VM46 colon carcinoma; [5],0
same,Partial Response,VM46 colon carcinoma; [5],0
same,Stable Disease,VM46 colon carcinoma; [5],1
same,Survivors,VM46 colon carcinoma; [5],1
same,Mean Score,"A2780 ovarian carcinoma; iv, 72.6 mg/kg",0 ± 0
same,Complete Response,"A2780 ovarian carcinoma; iv, 72.6 mg/kg, 1440 h",0
same,Partial Respons,"A2780 ovarian carcinoma; iv, 72.6 mg/kg, 1440 h",0
same,Stable Disease,"A2780 ovarian carcinoma; iv, 72.6 mg/kg, 1440 h",0
same,Toxic Deaths,A2780 ovarian carcinoma; [6],5
same,Survivors,A2780 ovarian carcinoma; [7],0
CCC(=O)O[C@H]1C(=O)[C@@]2(C)[C@H]([C@H](OC(=O)c3ccccc3)[C@]3(O)C[C@H](OC(=O)[C@H](O)[C@@H](NC(=O)OC(C)(C)C)c4ccco4)C(C)=C1C3(C)C)[C@]1(OC(C)=O)CO[C@@H]1C[C@@H]2O [Compound 0536],Mean Score,HCT116 carcinoma; [8],9.2 ± 0.2
same,Stable Disease,HCT116 carcinoma; [9],0
same,Complete Response,HCT116 carcinoma; [10],1
same,Partial Response,HCT116 carcinoma; [11],4
same,Survivors,HCT116 carcinoma; [1],5
same,Toxic Deaths,HCT116 carcinoma; [2],0
same,IC50,HCT116,< 1 nM
same,antitumor activity / tumor response,"MX-1 carcinoma; MX-1, i.v. qd x 1, Day 60",complete and durable tumor regressions in all the treated mice
same,Mean Score,MX-1 carcinoma; [12],6.7 ± 2.1
same,Stable Disease,MX-1 carcinoma; [13],0
same,Complete Response,MX-1 carcinoma; [14],4
same,Partial Response,MX-1 carcinoma; [15],0
same,Survivors,MX-1 carcinoma; [3],4
same,Toxic Deaths,MX-1 carcinoma; [4],2
same,antitumor activity,"A2780 ovarian carcinoma; A2780, i.v. qd x 1","did not cause any complete responses, partial responses, or cases of stable disease"
same,MDS,A2780 ovarian carcinoma; A2780,42.6 days
same,MDS (n),A2780 ovarian carcinoma; [16],42.6 ± 3.3 (5) days
same,Toxic Deaths,A2780 ovarian carcinoma; [6],0
same,Complete Response,A2780 ovarian carcinoma; [7],0
same,Partial Respons,A2780 ovarian carcinoma; [7],0
same,Stable Disease,A2780 ovarian carcinoma; [7],0
same,Survivors,A2780 ovarian carcinoma; [7],0
same,Mean Score,A2780 ovarian carcinoma; [17],3 ± 0
CCCC(=O)O[C@H]1C(=O)[C@@]2(C)[C@H]([C@H](OC(=O)c3ccccc3)[C@]3(O)C[C@H](OC(=O)[C@H](O)[C@@H](NC(=O)OC(C)(C)C)c4ccccn4)C(C)=C1C3(C)C)[C@]1(OC(C)=O)CO[C@@H]1C[C@@H]2O [Compound 0951],Mean Score,HCT116 carcinoma; [8],9.6 ± 0.2
same,Stable Disease,HCT116 carcinoma; [9],0
same,Complete Response,HCT116 carcinoma; [10],3
same,Partial Response,HCT116 carcinoma; [11],2
same,Survivors,HCT116 carcinoma; [1],5
same,Toxic Deaths,HCT116 carcinoma; [2],0
same,IC50,HCT116,< 1 nM
same,treated animals with durable complete responses and partial responses,MX-1 carcinoma; MX-1,100%
same,Mean Score,MX-1 carcinoma; [12],9.5 ± 0.5
same,Stable Disease,MX-1 carcinoma; [13],0
same,Complete Response,MX-1 carcinoma; [14],5
same,Partial Response,MX-1 carcinoma; [15],1
same,Survivors,MX-1 carcinoma; [3],6
same,Toxic Deaths,MX-1 carcinoma; [4],0
same,antitumor activity,"A2780 ovarian carcinoma; A2780, i.v. qd x 1",no tumor shrinkage
same,survival extension compared to Group 1 controls,"A2780 ovarian carcinoma; A2780, i.v. qd x 1",269%
same,MDS,A2780 ovarian carcinoma; A2780,43.2 days
same,Stable Disease,A2780 ovarian carcinoma; [18],one
CC(=O)O[C@@]12CO[C@@H]1C[C@H](O)[C@@]1(C)C(=O)[C@H](OC(=O)C3CC3)C3=C(C)[C@@H](OC(=O)[C@H](O)[C@@H](NC(=O)c4ccccc4)c4ccco4)C[C@@](O)([C@@H](OC(=O)c4ccccc4)[C@H]21)C3(C)C [Compound 0908],Mean Score,HCT116 carcinoma; [8],9.2 ± 0.2
same,Stable Disease,HCT116 carcinoma; [9],0
same,Complete Response,HCT116 carcinoma; [10],1
same,Partial Response,HCT116 carcinoma; [11],4
same,Survivors,HCT116 carcinoma; [1],5
same,Toxic Deaths,HCT116 carcinoma; [2],0
same,IC50,HCT116,< 1 nM
same,treated animals with durable complete responses and partial responses,MX-1 carcinoma; MX-1,100%
same,Mean Score,MX-1 carcinoma; [12],9.7 ± 0.3
same,Stable Disease,MX-1 carcinoma; [13],0
same,Complete Response,MX-1 carcinoma; [14],5
same,Partial Response,MX-1 carcinoma; [15],1
same,Survivors,MX-1 carcinoma; [3],6
same,Toxic Deaths,MX-1 carcinoma; [4],0
same,survival extension compared to Group 1 controls,"A2780 ovarian carcinoma; A2780, i.v. qd x 1",268%
same,MDS,A2780 ovarian carcinoma; A2780,43.1 days
same,Toxic Deaths,A2780 ovarian carcinoma; [18],one
same,total response rate,A2780 ovarian carcinoma; [18],at least 20%
same,MDS (n),A2780 ovarian carcinoma; [16],43.1 ± 8.0 (2) days
same,Toxic Deaths,A2780 ovarian carcinoma; [6],1
same,Complete Response,A2780 ovarian carcinoma; [7],0
same,Partial Respons,A2780 ovarian carcinoma; [7],1
same,Stable Disease,A2780 ovarian carcinoma; [7],1
same,Survivors,A2780 ovarian carcinoma; [7],2
same,Mean Score,A2780 ovarian carcinoma; [17],3.8 ± 1.5
